Reference: PMC11322497 (Frontiers in Pharmacology, 2024)

Key:
[1] = Plasma free selvigaltin pharmacokinetics, acute 5-day treatment; format: in vivo, rabbit
Source text: The dose employed was established based on pilot pharmacokinetics studies in rabbits performed historically in naïve rabbits (data not shown). This first part of the study allowed the determination of the therapeutic benefits of selvigaltin following acute treatment, thus validating the model for further investigation of this mechanism in a chronic treatment protocol.
(§1) After 1 week of standard diet, animals (n = 12) were randomly assigned to the following groups (Table 1A): • Control rabbits continued to receive a regular diet (RD) for 12 weeks and were treated for 5 days (days 1–5, p.o.), during the last week before culling, with either vehicle; RD+1W Veh group] or GB1211 (30 mg/kg; RD + 1W 30 mg group); • Rabbits received a high fat diet (HFD) for 12 weeks (RD implemented with 0.5% cholesterol and 2.5% vegetable fat) and were treated for 5 days (days 1–5, p.o.), during the last week before culling, with either vehicle (HFD + 1W Veh group) or GB1211 (30 mg/kg; HFD + 1W 30 mg group).
Liver homogenates were prepared by homogenisation of 200 mg liver tissue/ml water using a Fisherbrand™ Homogenizer 150 (Thermo Fisher Scientific, Waltham, MA). Plasma or liver homogenate were mixed 1 part matrix with 3 parts acetonitrile prior to centrifugation at 10,000 g for 10 min at 18°C with supernatant diluted x4 with water prior to LC-MS/MS analysis.

[2] = test system: high fat diet (HFD) rabbit model of metabolic-associated steatohepatitis (MASH); assay: HFD rabbit study, acute 5-day treatment: liver markers mRNA expression by RT-PCR; format: in vivo, New Zealand White rabbits; settings: 30 mg/kg p.o. 5 days, week 12, mean ± SD, n = 3
Description: as §1
TRIzol reagent (Life Technologies, Paisley, United Kingdom) and/or RNeasy Mini Kit (Qiagen, Hilden, Germany) were used to isolate total RNA from rabbit liver specimens. RNA concentration and quality were measured using a Nanodrop ND-1000 (Thermo Fisher Scientific) at 260 nm and 280 nm. The OD 260/280 absorbance ratios were between 2.0 and 2.1 for all samples, to confirm RNA integrity and purification. cDNA synthesis was carried out using the iScript™ cDNA Synthesis Kit (Bio-Rad Laboratories, Hercules, CA), with 100 ng of mRNA in 20 µL reaction volume in accordance with the following protocol: 5 min at 25°C, 20 min at 46°C and 5 min at 85°C, followed by refrigeration at 4°C.
Semi-quantitative real-time RT-PCR (qRT-PCR) amplification and detection was performed with SsoAdvanced™ universal SYBR® Supermix and a CFX96 Two-Color Real-Time PCR Detection System (both Bio-Rad Laboratories) with the following thermal cycler conditions: 40 cycles at 95°C for 15 s and 60°C for 1 min. Specific PCR primers for rabbit target genes were designed on sequences available at the National Center for Biotechnology Information GenBank (http://www.ncbi.nlm.nih.gov) or Ensemble Genome (http://www.ensembl.org).
The 18S ribosomal RNA subunit was quantified with a predeveloped assay (Hs99999901_s1, Life Technologies) and used as the housekeeping gene for the relative quantitation of the target genes based on the comparative threshold cycle (Ct) 2^−ΔΔCt method ([Livak and Schmittgen, 2001]), with some modifications. In detail, we used the vehicle control groups as the calibrator in each analysis, so that the calculations would provide the fold-change of the other groups relative to controls.

Q: For `OC[C@H]1O[C@H](Sc2cncc(Br)c2)[C@H](O)[C@@H](n2cc(-c3cc(F)c(F)c(F)c3)nn2)[C@H]1O` [selvigaltin], which “steady state systemic plasma drug concentration vs rabbit galectin-3 binding KD” value ([1]; 30 mg/kg/day p.o., acute treatment) is on record?
A: ~40 fold

Q: What about the “plasma exposure in HFD+1W 30 mg vs RD+1W 30 mg” value ([1]; day 4 of treatment, 30 mg/kg p.o.) of the same molecule?
A: marginal increase in exposure

Q: And the “CD8 liver mRNA expression” value ([2]; HFD rabbits)?
A: 1.76 ± 0.20 fold-change vs. RD+1W Veh

Q: And the “COL1A1 liver mRNA expression” value ([2]; HFD rabbits)?
A: 20.12 ± 15.24 fold-change vs. RD+1W Veh

Q: What about the “COL3A1 liver mRNA expression” value ([2]; HFD rabbits) of the same molecule?
A: 9.96 ± 7.51 fold-change vs. RD+1W Veh

Q: What about the “COX-2 liver mRNA expression” value ([2]; HFD rabbits) of the same molecule?
A: 8.81 ± 10.30 fold-change vs. RD+1W Veh

Q: What about the “EDN1 liver mRNA expression” value ([2]; HFD rabbits) of the same molecule?
A: 1.32 ± 0.21 fold-change vs. RD+1W Veh

Q: What about the “EDNRA liver mRNA expression” value ([2]; HFD rabbits) of the same molecule?
A: 7.73 ± 5.69 fold-change vs. RD+1W Veh

Q: What about the “EDNRB liver mRNA expression” value ([2]; HFD rabbits) of the same molecule?
A: 2.23 ± 0.95 fold-change vs. RD+1W Veh

Q: What about the “FN1 liver mRNA expression” value ([2]; HFD rabbits) of the same molecule?
A: 0.98 ± 0.14 fold-change vs. RD+1W Veh

Q: And the “FOXP3 liver mRNA expression” value ([2]; HFD rabbits)?
A: 5.15 ± 2.78 fold-change vs. RD+1W Veh

Q: What about the “IGF-1 liver mRNA expression” value ([2]; HFD rabbits) of the same molecule?
A: 0.34 ± 0.08 fold-change vs. RD+1W Veh

Q: What about the “LGALS3 liver mRNA expression” value ([2]; HFD rabbits) of the same molecule?
A: 116.95 ± 77.56 fold-change vs. RD+1W Veh

Q: What about the “PAI-1 liver mRNA expression” value ([2]; HFD rabbits) of the same molecule?
A: 14.10 ± 16.47 fold-change vs. RD+1W Veh

Q: And the “SNAI2 liver mRNA expression” value ([2]; HFD rabbits)?
A: 1.55 ± 0.26 fold-change vs. RD+1W Veh

Q: What about the “TBET liver mRNA expression” value ([2]; HFD rabbits) of the same molecule?
A: 0.74 ± 0.14 fold-change vs. RD+1W Veh

Q: And the “TGFβ1 liver mRNA expression” value ([2]; HFD rabbits)?
A: 4.25 ± 2.06 fold-change vs. RD+1W Veh

Q: And the “TGFβ3 liver mRNA expression” value ([2]; HFD rabbits)?
A: 2.97 ± 1.96 fold-change vs. RD+1W Veh

Q: And the “αSMA liver mRNA expression” value ([2]; HFD rabbits)?
A: 5.77 ± 3.34 fold-change vs. RD+1W Veh

Q: What about the “CD8 liver mRNA expression” value ([2]; RD rabbits) of the same molecule?
A: 1.14 ± 0.81 fold-change vs. RD+1W Veh

Q: And the “COL1A1 liver mRNA expression” value ([2]; RD rabbits)?
A: 0.82 ± 0.40 fold-change vs. RD+1W Veh

Q: And the “COL3A1 liver mRNA expression” value ([2]; RD rabbits)?
A: 0.47 ± 0.21 fold-change vs. RD+1W Veh

Q: What about the “COX-2 liver mRNA expression” value ([2]; RD rabbits) of the same molecule?
A: 2.52 ± 1.59 fold-change vs. RD+1W Veh

Q: And the “EDN1 liver mRNA expression” value ([2]; RD rabbits)?
A: 0.91 ± 0.20 fold-change vs. RD+1W Veh

Q: What about the “EDNRA liver mRNA expression” value ([2]; RD rabbits) of the same molecule?
A: 0.89 ± 0.29 fold-change vs. RD+1W Veh

Q: And the “EDNRB liver mRNA expression” value ([2]; RD rabbits)?
A: 0.79 ± 0.19 fold-change vs. RD+1W Veh

Q: What about the “FN1 liver mRNA expression” value ([2]; RD rabbits) of the same molecule?
A: 1.05 ± 0.12 fold-change vs. RD+1W Veh

Q: And the “FOXP3 liver mRNA expression” value ([2]; RD rabbits)?
A: 0.86 ± 0.12 fold-change vs. RD+1W Veh

Q: And the “IGF-1 liver mRNA expression” value ([2]; RD rabbits)?
A: 1.01 ± 0.19 fold-change vs. RD+1W Veh

Q: What about the “LGALS3 liver mRNA expression” value ([2]; RD rabbits) of the same molecule?
A: 1.27 ± 1.04 fold-change vs. RD+1W Veh

Q: What about the “PAI-1 liver mRNA expression” value ([2]; RD rabbits) of the same molecule?
A: 2.63 ± 1.79 fold-change vs. RD+1W Veh

Q: What about the “SNAI2 liver mRNA expression” value ([2]; RD rabbits) of the same molecule?
A: 1.01 ± 0.31 fold-change vs. RD+1W Veh

Q: What about the “TBET liver mRNA expression” value ([2]; RD rabbits) of the same molecule?
A: 0.75 ± 0.20 fold-change vs. RD+1W Veh

Q: And the “TGFβ1 liver mRNA expression” value ([2]; RD rabbits)?
A: 0.95 ± 0.31 fold-change vs. RD+1W Veh

Q: What about the “TGFβ3 liver mRNA expression” value ([2]; RD rabbits) of the same molecule?
A: 0.70 ± 0.08 fold-change vs. RD+1W Veh

Q: And the “αSMA liver mRNA expression” value ([2]; RD rabbits)?
A: 0.96 ± 0.59 fold-change vs. RD+1W Veh
